Our source for the FITC-positive cells and cell viability values is patent US20260000782A1, “ITGB2-MEDIATED DRUG DELIVERY SYSTEM” (TWINPIG BIOLAB INC., priority 2022, published 2026).

The test system of test [1] is M2 macrophages. Nature of the test: Flow cytometry of FITC-conjugated melittin on M0, M1 and M2 macrophages. The format is cell-based, human. Conditions: 50 nM FITC-conjugated melittin, 1 hour; THP-1 derived M0, M1, M2 macrophages. The protocol:
To confirm whether the melittin fabricated in Example 1 specifically bound to M2 tumor-associated macrophages (M2 TAMs), a human monocyte cell line THP-1 was differentiated into M0, M1, and M2 macrophages, and treated with FITC-conjugated melittin, and then confirmed by flow cytometry. Specifically, THP-1 cells were treated with 100 nM phorbol 12-myristate 13-acetate (PMA) at 37° C. for 24 hours (M0 macrophages), and the differentiated M0 macrophages were incubated with 100 nM LPS and 20 ng/ml IFN-γ at 37° C. for 72 hours to be differentiated into M1 macrophages (M1), and incubated with 20 ng/ml IL-4 and IL-13 at 37° C. for 72 hours to be differentiated into M2 macrophages (M2). The differentiated cells were treated with 50 nM FITC-conjugated melittin for 1 hour, detected with BD FACS CantoII instruments (BD biosciences, San Jose, CA, USA), and analyzed with FlowJo software (BD biosciences).

The test system of test [2] is M2 macrophages. Nature of the test: CCK-8 cell viability in M2 macrophages (control, ITGB2 knockdown, ITGB2 antibody pretreatment). The format is cell-based, human. Conditions: Melittin-dKLA 1 μM, 24 hours. The protocol: As a cell model used to confirm whether apoptosis was induced through ITGB2 in M2 macrophages, a cell model in which the expression of ITGB2 was suppressed in M2 macrophages was fabricated using Crispr/cas9. Specifically, cells differentiated into M2 macrophages were cultured in an Opti-MEM medium. The Crispr/cas9 was mixed with Cas9 protein V2 (Thermo Fisher scientific) and gRNA (Genscript; ITGB2; Table 7) of a CRISPRMAX™ Reagent kit (Thermo Fisher scientific) and a Cas9 Plus™ Reagent (Thermo Fisher scientific), and a CRISPRMAX™ Reagent was diluted in the Opti-MEM medium, mixed together, and reacted for 5 to 10 minutes, and then added to cells differentiated into M2 macrophages and cultured at 37° C. for 2 to 3 days. Thereafter, the mRNA expression level of ITGB2 was confirmed.
To confirm whether Melittin-dKLA bound to ITGB2 to induce apoptosis in M2 macrophages, Melittin-dKLA (1 μM) was treated for 24 hours to M2 macrophages in which ITGB2 expression was suppressed by Crispr/cas9 fabricated in Example 7-1 above, and cell viability was analyzed using a CCK-8 assay. Specifically, Melittin-dKLA (1 μM) reacted with ITGB2 knockdown macrophages fabricated in Example 7-1 above for 1 hour. After the reaction, the medium was replaced and cultured at 37° C. for 24 hours. […] Absorbance was measured at 450 nm using a microplate reader (Molecular Devices). […]

For the compound `CC[C@H](C)[C@H](NC(=O)CN)C(=O)NCC(=O)N[C@@H](C)C(=O)N[C@H](C(=O)N[C@@H](CC(C)C)C(=O)N[C@@H](CCCCN)C(=O)N[C@H](C(=O)N[C@@H](CC(C)C)C(=O)N[C@H](C(=O)N[C@H](C(=O)NCC(=O)N[C@@H](CC(C)C)C(=O)N1CCC[C@H]1C(=O)N[C@@H](C)C(=O)N[C@@H](CC(C)C)C(=O)N[C@H](C(=O)N[C@@H](CO)C(=O)N[C@@H](Cc1c[nH]c2ccccc12)C(=O)N[C@H](C(=O)N[C@@H](CCCCN)C(=O)N[C@@H](CCCNC(=N)N)C(=O)N[C@@H](CCCCN)C(=O)N[C@@H](CCCNC(=N)N)C(=O)N[C@@H](CCC(N)=O)C(=O)N[C@@H](CCC(N)=O)C(N)=O)[C@@H](C)CC)[C@@H](C)CC)[C@@H](C)O)[C@@H](C)O)C(C)C)C(C)C` [melittin, Melittin], in the test on M2 macrophages [1], the FITC-positive cells result is listed as “significantly increased in M2 macrophages”.

As for “Peptide with linker and drug dKLA attached to melittin, SEQ ID NO: 5, GIGAVLKVLTTGLPALISWIKRKRQQ-GGGGS-d[KLAKLAKKLAKLAK] [Melittin-dKLA]”, the cell viability entry is on record as “decrease in cell viability by Melittin-dKLA was suppressed” with M2 macrophages [2] (M2 macrophages in which ITGB2 was knocked down (Crispr/cas9)) and “significantly reduced” in the test with M2 macrophages [2] (control M2 macrophages).
